Test results as given in ChEMBL document CHEMBL5325441, “Current and emerging therapies for Achondroplasia: The dawn of precision medicine” (2023).
Activity calls are given as the source filed them. The rule behind the calls is not given here.

Columns and labels:
[1] = Induction of bone regrowth in achondroplasia Cynomolgus monkey model assessed as improvement in dwarfism by measuring tail size at 203 microg/kg, sc qd administered for 35 days; type: functional, Macaca fascicularis; details: dose 203 µg/kg, time 35 day
Bone [2] = test: Induction of bone regrowth in achondroplasia FVB mouse model assessed as improvement in dwarfism by measuring femur size at 203 microg/kg, sc administered as continuous infusion for 35 days; type: functional; details: dose 203 µg/kg, time 35 day
Bone [3] = test: Induction of bone regrowth in achondroplasia FVB mouse model assessed as improvement in dwarfism by measuring spine size at 203 microg/kg, sc qd administered for 35 days; type: functional; details: dose 203 µg/kg, time 35 day
[4] = Induction of bone regrowth in achondroplasia Cynomolgus monkey model assessed as improvement in dwarfism by measuring ulna size at 203 microg/kg, sc qd administered for 35 days; type: functional, Macaca fascicularis; details: dose 203 µg/kg, time 35 day
Bone [5] = test: Induction of bone regrowth in achondroplasia FVB mouse model assessed as improvement in dwarfism by measuring tibia size at 203 microg/kg, sc administered as continuous infusion for 35 days; type: functional; details: dose 203 µg/kg, time 35 day
Bone [6] = test: Induction of bone regrowth in achondroplasia FVB mouse model assessed as improvement in dwarfism by measuring spine size at 203 microg/kg, sc administered as continuous infusion for 35 days; type: functional; details: dose 203 µg/kg, time 35 day
Bone [7] = test: Induction of bone regrowth in achondroplasia FVB mouse model assessed as improvement in dwarfism by measuring tibia size at 203 microg/kg, sc qd administered for 35 days; type: functional; details: dose 203 µg/kg, time 35 day
Bone [8] = test: Induction of bone regrowth in achondroplasia FVB mouse model assessed as improvement in dwarfism by measuring femur size at 203 microg/kg, sc qd administered for 35 days; type: functional; details: dose 203 µg/kg, time 35 day
Bone [9] = test: Induction of bone regrowth in achondroplasia C57BL/6 mouse model expressing FGFR3 Y367C mutant assessed as improvement in dwarfism by measuring L4-L6 spine segment size at 2 mg/kg, sc administered for 15 days; type: functional; details: time 15 day
Bone [10] = test: Induction of bone regrowth in achondroplasia C57BL/6 mouse model expressing FGFR3 Y367C mutant assessed as improvement in dwarfism by measuring humerus bone size at 0.5 mg/kg, sc qd administered for 15 days; type: functional; details: time 15 day
Bone [11] = test: Induction of bone regrowth in achondroplasia C57BL/6 mouse model expressing FGFR3 Y367C mutant assessed as improvement in dwarfism by measuring ulna bone size at 0.5 mg/kg, sc qd administered for 15 days; type: functional; details: time 15 day
Bone [12] = test: Induction of bone regrowth in achondroplasia C57BL/6 mouse model expressing FGFR3 Y367C mutant assessed as improvement in dwarfism by measuring tibia bone size at 0.5 mg/kg, sc qd administered for 15 days; type: functional; details: time 15 day
Bone [13] = test: Induction of bone regrowth in achondroplasia C57BL/6 mouse model expressing FGFR3 Y367C mutant assessed as improvement in dwarfism by measuring femur bone size at 2 mg/kg, sc administered for 15 days; type: functional; details: time 15 day
Bone [14] = test: Induction of bone regrowth in achondroplasia C57BL/6 mouse model expressing FGFR3 Y367C mutant assessed as improvement in dwarfism by measuring ulna bone size at 2 mg/kg, sc administered for 15 days; type: functional; details: time 15 day
Bone [15] = test: Induction of bone regrowth in achondroplasia C57BL/6 mouse model expressing FGFR3 Y367C mutant assessed as improvement in dwarfism by measuring tail bone size at 2 mg/kg, sc administered for 15 days; type: functional; details: time 15 day
Bone [16] = test: Induction of bone regrowth in achondroplasia C57BL/6 mouse model expressing FGFR3 Y367C mutant assessed as improvement in dwarfism by measuring foramen magnum bone size at 2 mg/kg, sc administered for 15 days; type: functional; details: time 15 day
Bone [17] = test: Induction of bone regrowth in achondroplasia C57BL/6 mouse model expressing FGFR3 Y367C mutant assessed as improvement in dwarfism by measuring tibia bone size at 2 mg/kg, sc administered for 15 days; type: functional; details: time 15 day
Bone [18] = test: Induction of bone regrowth in achondroplasia C57BL/6 mouse model expressing FGFR3 Y367C mutant assessed as improvement in dwarfism by measuring femur bone size at 0.5 mg/kg, sc qd administered for 15 days; type: functional; details: time 15 day
Bone [19] = test: Induction of bone regrowth in achondroplasia C57BL/6 mouse model expressing FGFR3 Y367C mutant assessed as improvement in dwarfism by measuring anterior-posterior diameter of the skull size at 2 mg/kg, sc administered for 15 days; type: functional; details: time 15 day
Bone [20] = test: Induction of bone regrowth in achondroplasia C57BL/6 mouse model expressing FGFR3 Y367C mutant assessed as improvement in dwarfism by measuring humerus bone size at 2 mg/kg, sc administered for 15 days; type: functional; details: time 15 day
Bone [21] = test: Induction of bone regrowth in achondroplasia mouse model assessed as improvement in dwarfism by measuring L4-L6 spine segment size at 800 microg/kg, sc qd administered for 21 days; type: functional, organism-based; details: dose 800.0 µg/kg, time 21.0 day
Bone [22] = test: Induction of bone regrowth in achondroplasia mouse model assessed as improvement in dwarfism by measuring anterior-posterior diameter of the skull size at 800 microg/kg, sc qd administered for 21 days; type: functional, organism-based; details: dose 800.0 µg/kg, time 21.0 day
Bone [23] = test: Induction of bone regrowth in achondroplasia mouse model assessed as improvement in dwarfism by measuring tibia bone size at 800 microg/kg, sc qd administered for 21 days; type: functional, organism-based; details: dose 800.0 µg/kg, time 21.0 day
Bone [24] = test: Induction of bone regrowth in achondroplasia mouse model expressing FGFR3 Y367C mutant assessed as improvement in dwarfism by measuring foramen magnum bone size at 240 microg/kg, sc qd administered for 21 days; type: functional, organism-based; details: dose 240.0 µg/kg, time 21.0 day
Bone [25] = test: Induction of bone regrowth in achondroplasia mouse model expressing FGFR3 Y367C mutant assessed as improvement in dwarfism by measuring tail bone size at 240 microg/kg, sc qd administered for 21 days; type: functional, organism-based; details: dose 240.0 µg/kg, time 21.0 day
Bone [26] = test: Induction of bone regrowth in achondroplasia mouse model assessed as improvement in dwarfism by measuring tail bone size at 800 microg/kg, sc qd administered for 21 days; type: functional, organism-based; details: dose 800.0 µg/kg, time 21.0 day
Bone [27] = test: Induction of bone regrowth in achondroplasia mouse model expressing FGFR3 Y367C mutant assessed as improvement in dwarfism by measuring L4-L6 spine segment size at 240 microg/kg, sc qd administered for 21 days; type: functional, organism-based; details: dose 240.0 µg/kg, time 21.0 day
Bone [28] = test: Induction of bone regrowth in achondroplasia mouse model expressing FGFR3 Y367C mutant assessed as improvement in dwarfism by measuring tibia bone size at 240 microg/kg, sc qd administered for 21 days; type: functional, organism-based; details: dose 240.0 µg/kg, time 21.0 day
Bone [29] = test: Induction of bone regrowth in achondroplasia mouse model expressing FGFR3 Y367C mutant assessed as improvement in dwarfism by measuring femur bone size at 240 microg/kg, sc qd administered for 21 days; type: functional, organism-based; details: dose 240.0 µg/kg, time 21.0 day
Bone [30] = test: Induction of bone regrowth in achondroplasia mouse model expressing FGFR3 Y367C mutant assessed as improvement in dwarfism by measuring anterior-posterior diameter of the skull size at 240 microg/kg, sc qd administered for 21 days; type: functional, organism-based; details: dose 240.0 µg/kg, time 21.0 day
Bone [31] = test: Induction of bone regrowth in achondroplasia mouse model assessed as improvement in dwarfism by measuring foramen magnum bone size at 800 microg/kg, sc qd administered for 21 days; type: functional, organism-based; details: dose 800.0 µg/kg, time 21.0 day
Bone [32] = test: Induction of bone regrowth in achondroplasia mouse model assessed as improvement in dwarfism by measuring femur bone size at 800 microg/kg, sc qd administered for 21 days; type: functional, organism-based; details: dose 800.0 µg/kg, time 21.0 day

Work on CC[C@H](C)[C@@H]1NC(=O)[C@H](CCCNC(=N)N)NC(=O)[C@H](CC(=O)O)NC(=O)[C@H](CC(C)C)NC(=O)[C@H](CCCCN)NC(=O)[C@H](CC(C)C)NC(=O)CNC(=O)[C@H](Cc2ccccc2)NC(=O)[C@@H](NC(=O)CNC(=O)[C@H](CCCCN)NC(=O)[C@H](CO)NC(=O)[C@H](CC(C)C)NC(=O)CNC(=O)[C@H](CCCCN)NC(=O)[C@H](CCCCN)NC(=O)[C@H](CC(N)=O)NC(=O)[C@H](C)NC(=O)CNC(=O)[C@H](CCCCN)NC(=O)[C@H](Cc2ccc(O)cc2)NC(=O)[C@H](CCCCN)NC(=O)[C@H](CCCNC(=N)N)NC(=O)[C@H](C)NC(=O)[C@H](CC(N)=O)NC(=O)[C@@H]2CCCN2C(=O)[C@H](Cc2c[nH]cn2)NC(=O)[C@H](CCC(=O)O)NC(=O)[C@H](CCC(N)=O)NC(=O)[C@@H](N)CC(C)C)CSSC[C@@H](C(=O)O)NC(=O)CNC(=O)[C@H](CC(C)C)NC(=O)CNC(=O)[C@H](CO)NC(=O)[C@H](CCSC)NC(=O)[C@H](CO)NC(=O)CNC1=O yielded an Activity [1] of 9%, an Activity (Bone [2]) of 7.1% and an Activity (Bone [3]) of 11.3%. The Activity [4] was 2.7%, the Activity (Bone [5]) was 12.2% and the Activity (Bone [6]) was 25%. For the same compound, the Activity (Bone [7]) was 4% and the Activity (Bone [8]) was 5.5%.
CCN1CCN(c2ccc(Nc3cc(N(C)C(=O)Nc4c(Cl)c(OC)cc(OC)c4Cl)ncn3)cc2)CC1 [INFIGRATINIB] showed an Activity (Bone [9]) of 12.1%, an Activity (Bone [10]) of 7% and an Activity (Bone [11]) of 11%. For the same compound, the Activity (Bone [12]) was 16%, the Activity (Bone [13]) was 20.9% and the Activity (Bone [14]) was 22.3%. For the same compound, the Activity (Bone [15]) was 26.5%, the Activity (Bone [16]) was 16.8% and the Activity (Bone [17]) was 32.6%. It also gave an Activity (Bone [18]) of 11%, an Activity (Bone [19]) of 20.9% and an Activity (Bone [20]) of 11.9%.
VOSORITIDE showed an Activity (Bone [21]) of 3.3%, an Activity (Bone [22]) of 4.8% and an Activity (Bone [23]) of 6.6%. The Activity (Bone [24]) was “inactive”, the Activity (Bone [25]) was “inactive” and the Activity (Bone [26]) was 8%. It also gave an Activity (Bone [27]) of 2.8%, an Activity (Bone [28]) of 3.7% and an Activity (Bone [29]) of 3.4%. The Activity (Bone [30]) was 2.9%, the Activity (Bone [31]) was “inactive” and the Activity (Bone [32]) was 5.2%.
